According to patent publication US20260076923A1, “METHOD AND COMPOSITION TO REDUCE OR INHIBIT ADVANCED GLYCATION END-PRODUCTS” (NANJING NUTRABUILDING BIO-TECH CO., LTD., priority 2023, published 2026):

Assays:
GSH-Px = GSH-Px activity in skin of D-galactose-injected mice; type: in vivo, Kunming mice; conditions: end of the trial (14th week), 100 mg/kg each s.c. once daily for 6 weeks, compared to non-supplementation group, FIG. 8
Method: (§1) Six-week-old, male, Kunming mice (n=40), weighed about 30±2 g, were obtained from Cavens Lab Animal (Changzhou, China) and housed in a controlled room (25±2° C., 60% relative humidity, 12 h light/dark cycle) with free access to water and standard laboratory diet. After an acclimation period (1 week), mice were randomly divided into four groups. Each mouse's back skin was chosen as the experimental observation area, a razor was used to shave off the back hair. 5% sodium sulfide solution was applied to the back to remove the hair.
(§2) All mice were then injected subcutaneously with same volume of D-galactose (1000 mg/kg), once a day for 8 weeks. During the entire experiment, the daily food intake and weight of each mouse were recorded every day, and the D-galactose injection dose were adjusted according to the weight change.
(§3) The four groups were non-supplement group (Con, Group 1); THC supplement group (100 mg/kg, Group 2); EGT supplement group (100 mg/kg, Group 3); and EGT+THC supplement group (100 mg/kg EGT+100 mg/kg THC, Group 4). Mice in groups 2-4 were injected subcutaneously (s.c.) into their back skins with the corresponding concentration before each major meal once daily for 6 weeks. […]
(§4) Oxidative stress is increased during aging. […] The levels of H2O2, SOD, CAT, GSH, and GSH-Px in the skin were detected with relative kits as reference. […]

GSH = GSH activity in skin of D-galactose-injected mice; type: in vivo, Kunming mice; conditions: end of the trial (14th week), 100 mg/kg each s.c. once daily for 6 weeks, compared to non-supplementation group, FIG. 7
Method: as §1, §2, §3, §4

AGEs = experiment: Measurement of glycation: BSA incubated with D-ribose, fluorescence of the AGEs; type: biochemical, bovine; conditions: BSA 1 mg/ml + D-ribose 10 mM in PBS, 37° C., 10 days; THC 10 mM and/or EGT 10 mM; λex=380 nm, λem=450 nm; FIG. 1
Method: The formulation of glycation products was observed placing together a bovine serum albumin (BSA) and D-ribose in the absence of THC and EGT, and in the presence of THC only, EGT only and THC and EGT combination.
Specifically, a solution of BSA at a concentration of 1 mg/ml dissolved in phosphate-buffered saline (PBS) was incubated at 37° C. for 10 days with D-ribose at a concentration of 10 mM, in the absence of THC and EGT (Group 1), and the presence of THC only (10 mM, Group 2), EGT only (10 mM, Group 3) and the THC (10 mM) and EGT (10 mM) combination (Group 4).
So, the glycation was evaluated by measuring the fluorescence of the AGEs at λem=450 nm emitted by each sample after excitation at λex=380 nm. The inhibition of glycation was visualized by the decrease in fluorescence compared with the samples treated with the sugar alone.

CAT = CAT activity in skin of D-galactose-injected mice; type: in vivo, Kunming mice; conditions: end of the trial (14th week), 100 mg/kg each s.c. once daily for 6 weeks, compared to non-supplementation group, FIG. 6
Method: as §1, §2, §3, §4

SOD = SOD activity in skin of D-galactose-injected mice; type: in vivo, Kunming mice; conditions: end of the trial (14th week), 100 mg/kg each s.c. once daily for 6 weeks, compared to non-supplementation group, FIG. 5
Method: as §1, §2, §3, §4

C[N+](C)(C)[C@@H](Cc1c[nH]c(=S)[nH]1)C(=O)[O-] [EGT, ergothioneine]
GSH-Px activity (GSH-Px): significantly improved | GSH activity (GSH): significantly improved | percentage inhibition of fluorescence of the AGEs relative to the control (anti-glycation activity) (AGEs): fabulous anti-glycation activity | CAT activity (CAT): significantly improved | SOD activity (SOD): significantly improved
